Test results as given in patent US20210283058A1, “METHOD FOR PRODUCING SUSTAINED-RELEASE DRUG, AND SUSTAINED-RELEASE DRUG” (GUNZE LIMITED, priority 2016, published 2021).

Assay: Sustained release evaluated by weight loss curves from TG/DTA
Type: physicochemical
Details: conditions a): 30° C. to 40° C. at 5° C./min, then 40° C. for 30 minutes
Method: The sustained release of the sustained-release drug obtained in Example 4 was evaluated by the following method. Weight loss curves were drawn from TG curves obtained using a thermogravimetry/differential thermal analysis (TG/DTA) apparatus (PerkinElmer, STA 6000) under the following conditions: conditions a) the sustained-release drug is heated from 30° C. to 40° C. at 5° C./min, followed by keeping the drug isothermally at 40° C. for 30 minutes; and conditions b) the sustained-release drug is heated from 30° C. to 50° C. at 5° C./min, followed by keeping the drug isothermally at 50° C. for 30 minutes. FIG. 6(a) (conditions a) and FIG. 6(b) (conditions b) show the obtained weight loss curves.

CC(C)[C@@H]1CC[C@@H](C)C[C@H]1O [L-menthol]
release of medicinal ingredient (weight loss curve): significant volatility
